Measurements taken from patent US10344019B2 (priority 2010, dated 2019).
Like-named read-outs stand apart in the source and are kept apart here.

What was measured:
Assay type in all cases: cell-based
[1] = test system: HCV 2a Rluc cells (NS5A chimeric genotype 2a JFH-1 replicon with genotype 2a J6 strain NS5A gene, M31 present); assay: HCV replicon reporter assay, genotype 2a J6 (M31 present); settings: Hepatitis C virus, read-out: 2a J6
Procedure, shortened: (§1)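 Renilla luciferase HCV replicon cells: dicistronic 1b Con1, 1a H77 or 2a JFH-1 replicons, or a JFH-1 chimera carrying J6 NS5A (M31 present). Compound in DMSO serial dilutions, 72 h incubation, then lysis and luciferase read. EC50 by non-linear regression.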

[2] = test system: HCV 3a RLuc cells (NS5A chimeric genotype 1b Con1 replicon with consensus genotype 3a NS5A gene); assay: microbe, parasite or virus in culture; settings: Hepatitis C virus
Procedure, shortened: (§2)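 Replicon cells stably carrying the listed RLuc-encoding dicistronic replicons were seeded and treated with DMSO serial dilutions of compound (10 mM stocks) diluted into culture medium. After 72 h, cells were lysed and Renilla luciferase activity measured. EC50 was derived by non-linear regression.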

[3] = test system: HCV 2b Rluc cells (NS5A chimeric genotype 2a JFH-1 replicon with genotype 2b MD2b-1 NS5A gene, M31 present); assay: microbe, parasite or virus in culture; settings: Hepatitis C virus, read-out: 2b
Procedure, shortened: as §2

[4] = test system: HCV 1b RLuc cells (dicistronic genotype 1b Con1 replicon, RLuc reporter); assay: microbe, parasite or virus in culture; settings: Hepatitis C virus, read-out: 1b (nM)
Procedure, shortened: as §1

[5] = test system: HCV 1a RLuc cells (dicistronic genotype 1a H77 replicon, RLuc reporter); assay: microbe, parasite or virus in culture; settings: Hepatitis C virus, read-out: 1a
Procedure, shortened: as §1

[6] = test system: HCV 2a JFH-1 Rluc cells (dicistronic genotype 2a JFH-1 replicon, RLuc reporter); assay: microbe, parasite or virus in culture; settings: Hepatitis C virus, read-out: 2a JFH
Procedure, shortened: as §1

[7] = test system: HCV 4a Rluc cells (NS5A chimeric genotype 1b Con1 replicon with genotype 4a NS5A gene); assay: microbe, parasite or virus in culture; settings: Hepatitis C virus, read-out: 4a
Procedure, shortened: as §2

[8] = test system: Q30R in genotype 1a NS5A, 1a Rluc replicon transfected into Huh-7 cured-51 cells; assay: HCV replicon assay, resistance mutant 1a Q30R; settings: Hepatitis C virus, Huh-7, read-out: 1a Q30R
Procedure, shortened: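 Cells were Huh-7 cured-51 transfected with replicon RNA of a genotype 1a H77 RLuc replicon carrying site-directed Q30R in NS5A.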

[9] = read-out: 3a, genotype 3a NS5A chimeric replicon
[10] = genotype 2a JFH-1 RLuc replicon
[11] = read-out: 3a, genotype 3a replicon

Row | Compound | EC50 [1] | EC50 [2, 9] | EC50 [3] | EC50 [4] | EC50 ([5]; genotype 1a H77 RLuc replicon) | EC50 [6, 10] | EC50 [7] | EC50 [8] | EC50 [2, 11] | EC50 ([5]; genotype 1a replicon) | EC50 ([6]; genotype 2a JFH-1 replicon)
1 | COC(=O)N[C@H](C(=O)N1C[C@@H](C)C[C@H]1c1ncc(-c2ccc3c(c2)COc2cc4c(ccc5nc([C@@H]6C[C@H](C)CN6C(=O)[C@@H](NC(=O)OC)C(C)C)[nH]c54)cc2-3)[nH]1)C(C)C [Example 569] | 0.001 to 0.999 nM | 0.001 to 0.99 nM | 0.001 to 0.999 nM | 0.024 nM | 0.001 to 0.999 nM | 0.001 to 0.999 nM | 0.001 to 0.99 nM | 0.001 to 0.999 nM | – | – | –
2 | COC[C@H]1C[C@@H](c2nc3ccc4cc(-c5ccc6c(ccc7nc([C@@H]8CCCN8C(=O)[C@H](NC(=O)OC)c8ccccc8)[nH]c76)c5)ccc4c3[nH]2)N(C(=O)[C@@H](NC(=O)OC)C(C)C)C1 [Example 454] | 0.001 to 0.999 nM | – | 0.001 to 0.999 nM | 0.028 nM | – | – | 0.001 to 0.99 nM | 0.001 to 0.999 nM | 0.001 to 0.99 nM | 0.001 to 0.999 nM | 0.001 to 0.999 nM
3 | COC[C@H]1C[C@@H](c2nc3ccc4cc5c(cc4c3[nH]2)OCc2cc(-c3cnc([C@@H]4CC[C@H](C)N4C(=O)[C@@H](NC(=O)OC)C(C)C)[nH]3)ccc2-5)N(C(=O)[C@@H](NC(=O)OC)C(C)C)C1 [Example 561] | 0.001 to 0.999 nM | 0.001 to 0.99 nM | 0.001 to 0.999 nM | 0.01 nM | 0.001 to 0.999 nM | 0.001 to 0.999 nM | 0.001 to 0.99 nM | 0.001 to 0.999 nM | – | – | –
4 | COC[C@H]1C[C@@H](c2ncc(-c3ccc4c(c3)COc3cc5c(ccc6nc([C@@H]7CCCN7C(=O)[C@@H](NC(=O)OC)C(C)C)[nH]c65)cc3-4)[nH]2)N(C(=O)[C@H](NC(=O)OC)c2ccccc2)C1 [Example 590] | 0.001 to 0.999 nM | 0.001 to 0.99 nM | 0.001 to 0.999 nM | 0.014 nM | 0.001 to 0.999 nM | 0.001 to 0.999 nM | 0.001 to 0.99 nM | 0.001 to 0.999 nM | – | – | –
5 | COC[C@H]1CC(c2nc3ccc4cc(-c5ccc(-c6cnc([C@@H]7CCCN7C(=O)[C@H](NC(=O)C7CC7)c7ccccc7)[nH]6)cc5)ccc4c3[nH]2)N(C(=O)[C@@H](NC(=O)OC)C(C)C)C1 (stereo in doubt) [Example 425] | 0.001 to 0.999 nM | – | 0.001 to 0.999 nM | 0.034 nM | – | – | 0.001 to 0.99 nM | 0.001 to 0.999 nM | 0.001 to 0.99 nM | 0.001 to 0.999 nM | 0.001 to 0.999 nM
6 | COC[C@H]1C[C@@H](c2ncc(-c3ccc(-c4ccc5c(ccc6nc([C@@H]7CCCN7C(=O)[C@@H](NC(=O)OC)C(C)C)[nH]c65)c4)cc3)[nH]2)N(C(=O)[C@H](NC(=O)OC)c2ccccc2)C1 [Example 446] | 0.001 to 0.999 nM | – | 0.001 to 0.999 nM | 0.03 nM | – | – | 0.001 to 0.99 nM | 0.001 to 0.999 nM | 0.001 to 0.99 nM | 0.001 to 0.999 nM | 0.001 to 0.999 nM
7 | COC(=O)N[C@H](C(=O)N1CCC[C@H]1c1ncc(-c2ccc(-c3ccc4c(ccc5nc([C@@H]6CCCN6C(=O)[C@@H](NC(=O)OC)C(C)C)[nH]c54)c3)c(C#Cc3ccccc3)c2)[nH]1)C(C)C [Example 438] | > 44 nM | – | > 44 nM | 0.003 nM | – | – | 0.001 to 0.99 nM | 1 to 44 nM | 0.001 to 0.99 nM | 0.001 to 0.999 nM | 0.001 to 0.999 nM
8 | COC[C@H]1C[C@@H](c2nc3ccc4cc(-c5ccc6c(ccc7nc([C@@H]8CCCN8C(=O)[C@@H](NC(=O)OC)C(C)C)[nH]c76)c5)ccc4c3[nH]2)N(C(=O)[C@@H](NC(=O)OC)C(C)C)C1 [Example 398] | 0.001 to 0.999 nM | – | 0.001 to 0.999 nM | 0.023 nM | – | – | 0.001 to 0.99 nM | 0.001 to 0.999 nM | 0.001 to 0.99 nM | 0.001 to 0.999 nM | 0.001 to 0.999 nM
9 | COC[C@H]1C[C@@H](c2nc3ccc4cc(-c5ccc(-c6cnc([C@@H]7CCCN7C(=O)[C@@H](NC(=O)OC)C(C)C)[nH]6)cc5)ccc4c3[nH]2)N(C(=O)[C@H](NC(=O)C2CC2)c2ccccc2)C1 [Example 475] | 0.001 to 0.999 nM | – | 0.001 to 0.999 nM | 0.019 nM | – | – | 0.001 to 0.99 nM | 0.001 to 0.999 nM | 0.001 to 0.99 nM | 0.001 to 0.999 nM | 0.001 to 0.999 nM
10 | COC(=O)N[C@H](C(=O)N1CCC[C@H]1c1ncc(-c2ccc3c(c2)COc2cc4c(ccc5nc([C@@H]6CCCN6C(=O)[C@@H](NC(=O)OC)C(C)C)[nH]c54)cc2-3)[nH]1)C(C)C [Example 422] | 1 to 44 nM | – | 0.001 to 0.999 nM | 0.017 nM | – | – | 0.001 to 0.99 nM | 0.001 to 0.999 nM | 0.001 to 0.99 nM | 0.001 to 0.999 nM | 0.001 to 0.999 nM
11 | COC[C@H]1C[C@@H](c2nc3ccc4cc(-c5ccc6c(ccc7nc([C@@H]8CC[C@H](C)N8C(=O)[C@@H](NC(=O)OC)C(C)C)[nH]c76)c5)ccc4c3[nH]2)N(C(=O)[C@H](NC(=O)OC)c2ccccc2)C1 [Example 554] | 0.001 to 0.999 nM | 0.001 to 0.99 nM | 0.001 to 0.999 nM | 0.012 nM | 0.001 to 0.999 nM | 0.001 to 0.999 nM | 0.001 to 0.99 nM | 0.001 to 0.999 nM | – | – | –
12 | COC[C@H]1C[C@@H](c2ncc(-c3ccc(-c4ccc(-c5cnc([C@@H]6CCCN6C(=O)[C@@H](NC(=O)OC)C(C)C)[nH]5)cc4)cc3)[nH]2)N(C(=O)[C@H](NC(=O)C2CC2)c2ccccc2)C1 [Example 506] | 0.001 to 0.999 nM | 0.001 to 0.99 nM | 0.001 to 0.999 nM | 0.036 nM | 0.001 to 0.999 nM | 0.001 to 0.999 nM | 0.001 to 0.99 nM | 0.001 to 0.999 nM | – | – | –
13 | COC[C@H]1C[C@@H](c2nc3ccc4cc5c(cc4c3[nH]2)OCc2cc(-c3cnc([C@@H]4CCCN4C(=O)[C@@H](NC(=O)OC)C(C)C)[nH]3)ccc2-5)N(C(=O)[C@@H](NC(=O)OC)C(C)C)C1 [Example 495] | 0.001 to 0.999 nM | 0.001 to 0.99 nM | 0.001 to 0.999 nM | 0.026 nM | 0.001 to 0.999 nM | 0.001 to 0.999 nM | 0.001 to 0.99 nM | 0.001 to 0.999 nM | – | – | –
14 | COC[C@H]1C[C@@H](c2nc3ccc4cc(-c5ccc(-c6[nH]c([C@@H]7CCCN7C(=O)[C@H](NC(=O)C7CC7)c7ccccc7)nc6C)cc5)ccc4c3[nH]2)N(C(=O)[C@@H](NC(=O)OC)C(C)C)C1 [Example 525] | 0.001 to 0.999 nM | 0.001 to 0.99 nM | 0.001 to 0.999 nM | 0.038 nM | 0.001 to 0.999 nM | 0.001 to 0.999 nM | 0.001 to 0.99 nM | 0.001 to 0.999 nM | – | – | –
15 | COC[C@H]1C[C@@H](c2nc3ccc4cc(-c5ccc6c(ccc7nc([C@@H]8C[C@H](COC)CN8C(=O)[C@@H](NC(=O)OC)C(C)C)[nH]c76)c5)ccc4c3[nH]2)N(C(=O)[C@@H](NC(=O)OC)C(C)C)C1 [Example 436] | 0.001 to 0.999 nM | – | 0.001 to 0.999 nM | 0.051 nM | – | – | 0.001 to 0.99 nM | 0.001 to 0.999 nM | 0.001 to 0.99 nM | 0.001 to 0.999 nM | 0.001 to 0.999 nM
